Key:
[1] = molecular target: T1, Solute carrier organic anion transporter family member 1B1 (Homo sapiens, UniProt Q9Y6L6); details: chinese hamster, cho, 10 µM
T1 sequence (Q9Y6L6 whole entry): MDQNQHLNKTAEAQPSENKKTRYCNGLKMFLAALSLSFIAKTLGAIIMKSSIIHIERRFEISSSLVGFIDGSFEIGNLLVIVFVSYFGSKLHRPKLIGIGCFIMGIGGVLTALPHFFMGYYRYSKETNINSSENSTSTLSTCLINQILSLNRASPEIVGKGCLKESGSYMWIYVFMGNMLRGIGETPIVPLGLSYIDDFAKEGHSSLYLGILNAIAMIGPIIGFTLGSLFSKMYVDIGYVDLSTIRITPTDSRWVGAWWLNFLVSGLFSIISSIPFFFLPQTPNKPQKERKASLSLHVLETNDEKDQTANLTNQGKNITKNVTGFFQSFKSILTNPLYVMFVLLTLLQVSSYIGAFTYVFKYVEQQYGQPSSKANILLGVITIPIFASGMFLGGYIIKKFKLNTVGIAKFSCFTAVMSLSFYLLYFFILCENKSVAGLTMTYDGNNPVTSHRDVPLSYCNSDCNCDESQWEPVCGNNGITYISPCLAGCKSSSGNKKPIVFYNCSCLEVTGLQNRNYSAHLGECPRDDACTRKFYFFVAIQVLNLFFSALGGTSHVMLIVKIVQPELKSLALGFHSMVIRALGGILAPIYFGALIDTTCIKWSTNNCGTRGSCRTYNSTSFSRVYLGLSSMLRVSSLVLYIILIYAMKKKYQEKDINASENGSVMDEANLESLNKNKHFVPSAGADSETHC

[2] = molecular target: T2, Solute carrier organic anion transporter family member 1B3 (Homo sapiens, UniProt Q9NPD5); details: chinese hamster, cho, 10 µM
T2 sequence (Q9NPD5 whole entry): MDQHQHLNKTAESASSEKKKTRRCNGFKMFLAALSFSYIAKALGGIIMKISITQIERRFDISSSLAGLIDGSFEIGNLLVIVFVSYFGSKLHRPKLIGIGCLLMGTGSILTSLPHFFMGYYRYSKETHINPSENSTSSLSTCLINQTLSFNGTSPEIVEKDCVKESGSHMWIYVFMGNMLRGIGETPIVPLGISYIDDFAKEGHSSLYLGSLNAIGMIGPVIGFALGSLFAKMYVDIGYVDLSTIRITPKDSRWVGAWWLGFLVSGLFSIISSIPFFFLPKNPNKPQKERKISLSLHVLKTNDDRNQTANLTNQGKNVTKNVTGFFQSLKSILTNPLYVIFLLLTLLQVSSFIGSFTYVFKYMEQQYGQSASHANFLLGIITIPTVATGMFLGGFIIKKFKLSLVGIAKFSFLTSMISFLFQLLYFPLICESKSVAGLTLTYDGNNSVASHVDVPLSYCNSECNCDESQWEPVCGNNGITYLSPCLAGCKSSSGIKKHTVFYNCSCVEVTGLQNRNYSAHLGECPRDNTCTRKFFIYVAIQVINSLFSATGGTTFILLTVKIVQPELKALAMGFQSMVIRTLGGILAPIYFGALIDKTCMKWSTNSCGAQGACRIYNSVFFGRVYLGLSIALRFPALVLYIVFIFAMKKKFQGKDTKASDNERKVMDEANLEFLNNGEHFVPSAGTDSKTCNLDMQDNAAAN

CCc1ccc2c(O)c3c(cc2c1C(=O)OC)C(=O)c1c(O)ccc(O)c1C3=O [BISANHYDRORUTILANTINONE]
residual activity [1]: 104.1%
residual activity [2]: 115.2%

CCCCCC/C=C\CCCCCCCc1cccc(O)c1C(=O)O [GINGKOLIC ACID]
residual activity [1]: 135.9%
residual activity [2]: 93.22%

CC(C)N(C(=O)SCC(Cl)=C(Cl)Cl)C(C)C [TRIALLATE]
residual activity [1]: 119.9%
residual activity [2]: 109.6%

CC(=O)O[C@@H]1[C@H]2CC[C@H]3[C@@](C)(O)[C@@H]4C[C@H](O)C(C)(C)[C@@]4(O)[C@H](O)C[C@@]13C[C@@]2(C)O [GRAYANOTOXIN I]
residual activity [1]: 79.68%
residual activity [2]: 95.98%

CC(CN(C)C)CN1c2ccccc2CCc2ccccc21.O=C(O)/C=C\C(=O)O (stereo unspecified) [TRIMIPRAMINE MALEATE]
residual activity [1]: 93.52%
residual activity [2]: 103.3%

COC(=O)C1=C(C)NC(C)=C(C(=O)OC)C1c1ccccc1[N+](=O)[O-] [NIFEDIPINE]
residual activity [1]: 75.83%
residual activity [2]: 170.6%

CN1CCCN=C1COC(=O)C(O)(c1ccccc1)C1CCCCC1.Cl (stereo unspecified) [OXYPHENCYCLIMINE HYDROCHLORIDE]
residual activity [1]: 92.1%
residual activity [2]: 103.9%

COC(=O)c1cc(OC)c(=O)c2c(OC)c(OC)ccc2c1 [METHYL 7-DESOXYPURPUROGALLIN-7-CARBOXYLATE TRIMETHYL ETHER]
residual activity [1]: 133.8%
residual activity [2]: 100.1%

Cc1onc(-c2ccccc2)c1C(=O)N[C@@H]1C(=O)N2[C@@H]1SC(C)(C)[C@@H]2C(=O)[O-].[Na+]
residual activity [1]: 76.67%
residual activity [2]: 90.07%

CC1(C)C[C@@H]2[C@H]1CC[C@]1(C)C[C@@]2(O)CC[C@H]1O
residual activity [1]: 81.35%
residual activity [2]: 87.7%

CC(=O)Nc1ccccc1 [ACETANILIDE]
residual activity [1]: 96.78%
residual activity [2]: 100.2%

O=C(O)CN(CC(=O)O)Cc1cc2c(cc1O)Oc1cc(O)c(CN(CC(=O)O)CC(=O)O)cc1C21OC(=O)c2ccccc21 [OFTASCEINE]
residual activity [1]: 105.6%
residual activity [2]: 121.3%

CCCCCCc1ccc(O)cc1O [HEXYLRESORCINOL]
residual activity [1]: 115.5%
residual activity [2]: 84.11%

O=C(O)/C=C\C(=O)O.c1ccc2nc(N3CCNCC3)ccc2c1 [QUIPAZINE MALEATE]
residual activity [1]: 102.6%
residual activity [2]: 102.9%

Cl.O=C(COc1ccc(Cl)cc1)N1CCN(Cc2ccc3c(c2)OCO3)CC1 [FIPEXIDE HYDROCHLORIDE]
residual activity [1]: 103.1%
residual activity [2]: 95%

NCCC(=O)c1ccccc1N [KYNURAMINE]
residual activity [1]: 113.9%
residual activity [2]: 89.22%

COc1cc(OC)c2c(c1)O[C@H](c1ccc(OC)c(OC)c1)[C@@H](O)C2
residual activity [1]: 123.7%
residual activity [2]: 103.7%

O=C(O)c1cc(O)c2c(c1)C(=O)c1cc(O)cc(O)c1C2=O [EMODIC ACID]
residual activity [1]: 150%
residual activity [2]: 72.9%

Cl.Cl.Fc1ccc([C@@H]2CCNC[C@H]2COc2ccc3c(c2)OCO3)cc1.Fc1ccc([C@@H]2CCNC[C@H]2COc2ccc3c(c2)OCO3)cc1.O [PAROXETINE HYDROCHLORIDE]
residual activity [1]: 96.74%
residual activity [2]: 76.07%

C=C(C)[C@@H]1CC[C@]2(CO)CC[C@]3(C)[C@H](CC[C@@H]4[C@@]5(C)CC[C@H](O)C(C)(C)[C@@H]5CC[C@]43C)[C@@H]12 [BETULIN]
residual activity [1]: 106.3%
residual activity [2]: 92.43%

C[C@]12CC[C@@H](O)C[C@H]1CC[C@@H]1[C@@H]2C(=O)C[C@@]2(C)[C@H]1CC[C@]2(O)C(=O)CO [TETRAHYDROCORTISONE]
residual activity [1]: 101.6%
residual activity [2]: 99.93%

O=c1cc[nH]c(=S)[nH]1 [THIOURACIL]
residual activity [1]: 95.34%
residual activity [2]: 77.62%

Br.COc1ccc2c(c1)[C@]13CCCC[C@@H]1[C@H](C2)N(C)CC3.O [DEXTROMETHORPHAN HYDROBROMIDE]
residual activity [1]: 49.83%
residual activity [2]: 78.21%

COc1ccccc1OCC(O)COC(N)=O (stereo unspecified) [METHOCARBAMOL]
residual activity [1]: 101.2%
residual activity [2]: 104.7%

OC[C@@H](O)[C@@H](O)[C@@H](O)CO [RIBITOL]
residual activity [1]: 81.13%
residual activity [2]: 94.42%

N[C@@H](Cc1ccc(O)c(O)c1)C(=O)O [LEVODOPA]
residual activity [1]: 86.05%
residual activity [2]: 90.65%

O=c1cccc2n1C[C@@H]1CNC[C@H]2C1 [CYTISINICLINE]
residual activity [1]: 99.71%
residual activity [2]: 106.2%

CC1=CC(=O)C(C(C)C)=CC1=O [THYMOQUINONE]
residual activity [1]: 126.4%
residual activity [2]: 98.24%

C[C@]12C=CC(=O)C=C1CC[C@@H]1[C@@H]2[C@@H](O)C[C@@]2(C)[C@H]1CC[C@]2(O)C(=O)CO [PREDNISOLONE]
residual activity [1]: 79.83%
residual activity [2]: 110.4%

O=C(CCCN1CCN(c2ccccn2)CC1)c1ccc(F)cc1 [AZAPERONE]
residual activity [1]: 88.32%
residual activity [2]: 108.2%

O=c1ccc2cc(O)c(O)cc2o1 [ESCULETIN]
residual activity [1]: 111.1%
residual activity [2]: 105.3%

COc1cc2c(cc1O)C(Cc1ccc(O)cc1)N(C)CC2 (stereo unspecified) [METHYL COCLAURINE]
residual activity [1]: 96.63%
residual activity [2]: 94.46%

COC(=O)c1c(C)cc(O)cc1O [METHYL ORSELLINATE]
residual activity [1]: 90.83%
residual activity [2]: 98.38%

COc1cc2c(cc1OC)C1(O)C(=O)c3ccc(O)c(C(=O)O)c3OC1CO2 (stereo unspecified) [12a-HYDROXY-9-DEMETHYLMUNDUSERONE-8-CARBOXYLIC ACID]
residual activity [1]: 215.8%
residual activity [2]: 86.59%

CC(C)(C)NC[C@H](O)c1ccc(O)c(CO)c1.Cl [LEVALBUTEROL HYDROCHLORIDE]
residual activity [1]: 95.04%
residual activity [2]: 85.66%

Cc1cc(=O)c2c(O)c3c(cc2o1)OCC(C)CC3 (stereo unspecified) [DIHYDROPTAEROXYLIN]
residual activity [1]: 94.2%
residual activity [2]: 85.01%

CC(C)(Oc1ccc(Cl)cc1)C(=O)O [CLOFIBRIC ACID]
residual activity [1]: 111.2%
residual activity [2]: 99.14%

CC1=C(/C=C/C(C)=C/C=C/C(C)=C/C=C/C=C(C)/C=C/C=C(C)/C=C/C2=C(C)C(=O)[C@@H](O)CC2(C)C)C(C)(C)C[C@H](O)C1=O [ASTAXANTHIN]
residual activity [1]: 95.25%
residual activity [2]: 87.19%

O=C1CC[C@]23/C=C/C(=O)NCCCCNCCCNC(=O)/C=C\c4ccc(c2c4)O[C@@H]3C1
residual activity [1]: 70.42%
residual activity [2]: 100.4%

ClC1=C(Cl)C2(Cl)C3C(Cl)C=CC3C1(Cl)C2(Cl)Cl (stereo unspecified) [HEPTACHLOR]
residual activity [1]: 98.77%
residual activity [2]: 131.9%

O=C(O)[C@]1(O)C[C@@H](O)[C@@H](O)[C@H](O)C1 [QUINIC ACID]
residual activity [1]: 95.08%
residual activity [2]: 98.01%

C=C1CC/C=C(\C)CC[C@@H]2[C@@H]1CC2(C)C [BETA-CARYOPHYLLENE]
residual activity [1]: 99.94%
residual activity [2]: 88.67%

CCCNC(=O)NS(=O)(=O)c1ccc(Cl)cc1 [CHLORPROPAMIDE]
residual activity [1]: 102%
residual activity [2]: 102.2%

CC(COc1ccccc1)NC(C)C(O)c1ccc(O)cc1.Cl (stereo unspecified) [ISOXSUPRINE HYDROCHLORIDE]
residual activity [1]: 38.44%
residual activity [2]: 77.52%

C/C=C(/C)C(=O)O[C@@H]1Cc2c(ccc3ccc(=O)oc23)OC1(C)C [JATAMANSIN]
residual activity [1]: 165.1%
residual activity [2]: 153%

C[C@]12CCC(=O)C(O)=C1CC[C@@H]1[C@@H]2CC[C@]2(C)C(=O)CC[C@@H]12 [FORMESTANE]
residual activity [1]: 81.74%
residual activity [2]: 106.1%

CO[C@@]1(NC(=O)C(C(=O)[O-])c2ccc(O)cc2)C(=O)N2C(C(=O)[O-])=C(CSc3nnnn3C)CO[C@@H]21.[Na+].[Na+] (stereo partly specified) [MOXALACTAM DISODIUM]
residual activity [1]: 87.94%
residual activity [2]: 92.91%

O=C(O)CCCCCCCC(=O)O [AZELAIC ACID]
residual activity [1]: 100.4%
residual activity [2]: 107.2%

Source: ChEMBL document CHEMBL3039007, “Structure-based identification of OATP1B1/3 inhibitors” (Mol Pharmacol, 2013)
